Source: patent publication US20200197385A1, “THERAPEUTIC AGENT FOR CANCER CONTAINING AXL INHIBITOR AS ACTIVE INGREDIENT” (ONO PHARMACEUTICAL CO., LTD., priority 2017, published 2020)

What was measured:
[1] = test system: leukemia cells in bone marrow derived from patient with acute myeloid leukemia; experiment: Proliferation test (CFDA-SE), bone marrow sample of acute myeloid leukemia patient, compound A combined with anticancer drugs; type: cell-based, human; conditions: 96 hours, Ci<1 synergistic action
Procedure: (§1) Initial evaluation: Bone marrow samples were obtained from an adult acute myeloid leukemia patient. […] Furthermore, to evaluate the initial survival rate of cells, Annexin V was added to the above-mentioned combination of MAb.
Proliferation test: Proliferation was measured using a CFDA-SE coloring agent. A coloring agent which had been prepared in advance was placed in 15-mL tube including bone marrow enough to obtain about 6000 cells/well of living leukemia cells. Thereafter, they were diluted with the medium such that the total volume became 1 mL. After the resultant product was mixed well by vortex, the mixture was incubated on a rotator at room temperature with light shielded for 10 minutes. Then, the tube was filled with cool RPMI1640 including 10% FBS (medium 2), and incubated on ice for 5 minutes to stop the reaction. Thereafter, the cells were washed with the medium 2 twice. For the final re-suspension before plating and incubation, the medium 1 replenished with a cytokine cocktail was used. […] The plate containing the sample was incubated at 37° C. in humidified air including 5% CO2 for 96 hours. In order to prepare a sample for analysis, erythrocytes were lysed after completion of incubation, and then, the sample was stained with the best combination of Mab and Annexin V to identify the leukemia cells in the sample. Finally, the plate was analyzed by ExviTech (registered trademark) platform.
Data analysis: Synergistic analysis was carried out by calculating Combination Index (Ci) as described in Cancer Research, Vol. 70, No. 2, pp. 440-446, 2010. […] Note here that the meaning of the Ci value is regarded as follows.
(§2) Ci<1: synergistic action, Ci=1: additive action, Ci>1: antagonistic action

[2] = test system: leukemia cells in bone marrow derived from patient with acute myeloid leukemia; experiment: Reduction test, bone marrow sample of acute myeloid leukemia patient, compound A combined with anticancer drugs; type: cell-based, human; conditions: 96 hours, Ci<1 synergistic action
Procedure: as §1
The plate containing the sample was incubated at 37° C. in humidified air including 5% CO2 for 96 hours. In order to prepare a sample for analysis, erythrocytes were lysed after completion of incubation, and then, the sample was stained with the best combination of Mab and Annexin V to identify the leukemia cells in the sample. Finally, the plate was analyzed by ExviTech (registered trademark) platform.
Note here that the meaning of the Ci value is regarded as follows.
as §2

[3] = test system: human acute lymphatic leukemia cell line CCRF-HSB-2; experiment: In vitro combined use test, Cell Titer-Glo; type: cell-based; conditions: 72 hours
Procedure: A human acute lymphatic leukemia cell line CCRF-HSB-2 was prepared in an IMDM medium containing 10% FBS (10% FBS-IMDM medium) at about 200000 cells/mL, and seeded in a 96 well plate at 50 μL/well. […] The plate was incubated at 37° C. in humidified air including 5% CO2 for 72 hours. After culturing, relative luminescence unit (RLU), proportional to cellular endogenous ATP amount, was measured by Cell Titer-Glo Luminescent Cell Viability Assay (registered trademark). Percentage (%) of RLU of each compound-treated group relative to RLU of the vehicle group was measured.

[4] = test system: mouse pancreatic cancer cell line Pan02 orthotopic implantation model; experiment: Antitumor action, orthotopic transplantation model, survival; type: in vivo; conditions: Pan02 orthotopic implantation mice; compound A 20 mg/kg/day via the diet; gemcitabine 60 mg/kg i.p. twice a week; Day 0 to Day 95
Procedure: For the compound A, mouse feed CRF-1 containing 0.013% compound A was manufactured by Oriental Yeast Co., Ltd. so as to be administered in 20 mg/kg/day as administration via the diet. Gemcitabine was obtained from Wako Pure Chemical Industries, Ltd. C57/BL6 mouse pancreatic cancer cell line Pan02 was transplanted into the pancreas of the same type syngeneic mice (C57/BL6, female, 6-week old (Charles River Laboratories Japan, Inc.)) to produce Pan02 orthotopic implantation mice. On day 7 after transplantation, based on the body weight, the mice were assigned to four groups, i.e., a vehicle group, a gemcitabine group, compound A group, a combined use group of gemcitabine+compound A, and the compound A (each n=8 to 9). The day on which group assignment was carried out was defined as Day 0. To the vehicle group and the compound A group, PBS (10 mL/kg, twice a week) was intraperitoneally administered. To the gemcitabine group and a combined use group of gemcitabine+compound A, gemcitabine (60 mg/10 mL/kg, twice a week) was administered by intraperitoneal administration. To the compound A group and the combined use group of gemcitabine+compound A, CRF-1 containing 0.013% compound A was fed from Day 0. From Day 0 to Day 95, the survival time of each mouse in each group was evaluated. […]

[5] = test system: human acute myeloid leukemia cell line CMK-11-5; experiment: In vitro combined use test, Cell Counting Kit-8; type: cell-based; conditions: 72 hours
Procedure: A human acute myeloid leukemia cell line CMK-11-5 was prepared in an RPMI medium containing 10% FBS (10% FBS-RPMI medium) at about 30000 cells/mL, and seeded in a 96 well plate at 50 μL/well. To this, 10% FBS-RPMI medium containing ABBV-075 having 4 times higher concentration than the final concentration was added at 25 μL/well. Furthermore, 10% FBS-RPMI medium containing the compound A having 4 times higher concentration than the final concentration was added at 25 μL/well (final volume: 100 μL/well DMSO concentration: 0.2%). The plate was incubated at 37° C. in humidified air including 5% CO2 for 72 hours. After culturing, absorbance at 450 nm of a formazan product, proportional to the number of living cells, was measured using Cell Counting Kit-8. Percentage (%) of absorbance at 450 nm of each compound-treated group with respect to absorbance at 450 nm of the vehicle group was calculated.

CC[C@@H]1C(=O)N(C)c2cnc(Nc3ccc(C(=O)N[C@H]4CC[C@H](N5CCN(CC6CC6)CC5)CC4)cc3OC)nc2N1C(C)C [Volasertib, volasertib]
Ci median value in combined use with compound A [1]: 0.830

CCc1nc(C(N)=O)c(Nc2ccc(N3CCC(N4CCN(C)CC4)CC3)c(OC)c2)nc1NC1CCOCC1 [Gilteritinib, gilteritinib]
Ci median value in combined use with compound A [1]: 0.495

COc1cc(C(=O)O)ccc1NC(=O)[C@@H]1N[C@@H](CC(C)(C)C)[C@](C#N)(c2ccc(Cl)cc2F)[C@H]1c1cccc(Cl)c1F [Idasanutlin, idasanutlin]
Ci median value in combined use with compound A [2]: 0.719

C[C@@H]1C[C@H]2[C@@H]3CCC4=CC(=O)C=C[C@]4(C)[C@@]3(F)[C@@H](O)C[C@]2(C)[C@@]1(O)C(=O)CO [Dexamethasone, dexamethasone]
Ci median value in combined use with compound A [3]: 0.589

CCCCc1nc2cc(/C=C/C(=O)NO)ccc2n1CCN(CC)CC [Plasinostat, plasinostat]
Ci median value in combined use with compound A [2]: 0.440

COc1cc2nccc(Oc3ccc(NC(=O)c4cc5c(n(-c6ccccc6)c4=O)CCCC5=O)nc3)c2cc1OC [Compound A, N-{5-[(6,7-dimethoxy-4-quinolinyl)oxy]-2-pyridinyl}-2,5-dioxo-1-phenyl-1,2,5,6,7,8-hexahydro-3-quinolinecarboxamide]
Median value of survival days [4]: 54 days

CCS(=O)(=O)Nc1ccc(Oc2ccc(F)cc2F)c(-c2cn(C)c(=O)c3[nH]ccc23)c1 [ABBV-075]
absorbance at 450 nm in combined use with compound A compared with single use of each agent [5]: lowered

CO[C@@H]1[C@H](N(C)C(=O)c2ccccc2)C[C@H]2O[C@]1(C)n1c3ccccc3c3c4c(c5c6ccccc6n2c5c31)C(=O)NC4 [Midostaurin, midostaurin]
Ci median value in combined use with compound A [1]: 0.673

Nc1ccn([C@@H]2O[C@H](CO)[C@@H](O)C2(F)F)c(=O)n1 [Gemcitabine, gemcitabine]
Median value of survival days [4]: 67 days

Nc1ccn([C@@H]2O[C@H](CO)[C@@H](O)[C@@H]2O)c(=O)n1 [Cytarabine, cytarabine]
Ci median value in combined use with compound A [3]: 0.696
RLU in combined use with compound A compared with single use of each agent [3]: lowered

COc1cccc2c1C(=O)c1c(O)c3c(c(O)c1C2=O)C[C@@](O)(C(C)=O)C[C@@H]3O[C@H]1C[C@H](N)[C@H](O)[C@H](C)O1 [Daunorubicin, daunorubicin]
Ci median value in combined use with compound A [3]: 0.936
RLU in combined use with compound A compared with single use of each agent [3]: lowered
